Patent US20120076871A1, “METHOD FOR DETECTING, QUANTIFYING AND MAPPING DAMAGE AND/OR REPAIR OF DNA STRANDS” (GENOMIC VISION SA, priority 2010, published 2012)

Experiments:
[1] = tested on: human DNA extracted from cells; experiment: Relative fragmentation-induced Profile Deviation: Fpg treatment and Molecular Combing of DNA from cells exposed to H2O2; format: cell-based
Method: Construction of a DNA length reference profile of a healthy cellular population and comparison of the profile obtained from the same population after exposure to a genotoxic agent is performed. High resolution DNA length reference profiles are constructed by measuring the size of thousands of DNA molecules uniformly stretched on a combed slide.
In the case of damage generated at high frequency along the genome (for instance SSB, abasic sites, methylated, alkylated, oxidated bases, photoproducts), the conversion of most of the targeted lesions into DSB generates theoretically as much new DNA extremities as much lesions were present on the molecules. When comparing the length distribution profile of the damaged sample with the undamaged reference, a Profile Deviation (PD) associated to a specific damage appears. The amount of lesions generated by the genotoxic compound can then be estimated directly from the PD. […]
For direct visualization of stretched DNA, cover-slips were mounted with 20 μL of a Block-Aid (Invitrogen, ref. B-10710)-YOYO-1 iodide (Molecular Probes, code Y3601) mixture (10000:1 v/v) in order to counter-stain all stretched molecules. […] Length of the YOYO-1-stained DNA fibers were measured with internal software GVlab v0.4.6 (Genomic Vision S.A., Paris, France).

[2] = tested on: non-small cell lung cancer (NSCLC); settings: higher levels of DNA repair capacity; cited from earlier work
testicular cancer = settings: strongly reduced DNA repair capacity; cited from earlier work

| Compound | decay constants τ of exponential fit y=Ae^-x/τ of DNA size distribution as a function of H2O2 dose ([1]; 1, 5, 10 and 20 mM H2O2, 10 min, control excluded from linear fit) | length of stretched DNA strands (clustered oxidative damage) after Fpg treatment ([1]; cells incubated 10 min with 10 and 20 mM H2O2, compared to control sample) | survival after cisplatin treatment [2] | survival rate after cisplatin treatment (testicular cancer) [%] |
| --- | --- | --- | --- | --- |
| OO [H2O2] | decrease linearly | much shorter than in the control sample |  |  |
| N.N.[Cl][Pt][Cl] [cisplatin] |  |  | low survival | 95 |
